Source: patent US20260151354A1, “SOLID DISPERSION OF CURCUMIN DERIVATIVE METHOD FOR PREPARING SAME, AND USE THEREOF” (WENZHOU MEDICAL UNIVERSITY, priority 2022, published 2026)
Like-named read-outs stand apart in the source and are kept apart here.

Columns and labels:
[1] = Solubility of C66 in solvents (Table 1); type: physicochemical
[2] = Permeability of C66 (previous studies); type: in vitro ADME
[3] = Saturated concentration of C66 in SDS and Tween 80 solutions; type: physicochemical
From the text: The inventors also investigated the solubility of C66 in sodium dodecyl sulfate (SDS) and Tween 80 (T80). According to the recommended usage of surfactants specified in Handbook of Pharmaceutical Excipients, and recommendations from the National Medical Products Administration of China and the U.S. Food and Drug Administration (FDA), a proportion of surfactants in the solution is 1%-3%.

[4] = Solubility of C66 in buffer solutions of different pH (37° C. shaker 24 hours, HPLC); type: physicochemical; details: buffer solutions pH 1.0, 1.2, 2.0, 4.0, 5.0, 6.0, 6.8, 7.4
Procedure: In addition, the inventors also prepared a series of buffer solutions (pH 1.0, pH 1.2, pH 2.0, pH 4.0, pH 5.0, pH 6.0, pH 6.8, and pH 7.4) according to the recommended conditions of the Pharmacopoeia, to investigate the solubility of C66 under different pH conditions. Excess C66 powder was added to each of the solutions to obtain a mixture, the mixture was shaken in a 37° C. shaker for 24 hours. The C66 concentration was then measured using high-performance liquid chromatography.

[5] = Cumulative dissolution of pulverized C66 substance in surfactant aqueous solutions; type: physicochemical; details: 60 min
Procedure: None of them reached the quality control requirement that the cumulative dissolution rate could be equal to or greater than 85% in 30 min-60 min.

[6] = Related substances after acceleration storage; type: physicochemical; details: C66 substance Batch C66-S-ZS-03-09, comparison
Procedure: (§1) Acceleration test conditions: aluminum foil bag packaging, sealed, 40±2° C., 75%±5% RH, sample placement;
(§2) Samples: Solid dispersions obtained in Examples 1, 2, and 3.

[7] = Content determination after acceleration storage; type: physicochemical; details: C66 substance Batch C66-S-ZS-03-09, comparison
Procedure: as §1, §2

[8] = male, Beagle, dog, in vivo
Procedure: (§3) 6 male Beagle dogs (with a weight of 8.00-8.62 kg per dog) that passed the quarantine were selected and divided into 2 groups by weight according to a completely random method, that is, oral administration group, and intravenous injection group, with 3 dogs in each group, and single gavage administration were given. The dogs were subjected to fasting but not water deprivation 12 hours before administration, and were provided with food 4 hours after administration, with free access to water. For the oral administration group, 1% sodium carboxymethyl cellulose (CMC-Na) was mixed with C66 substance to prepare a 0.6 mg/mL suspension for gavage. For the intravenous injection group, a required amount of C66 substance was weighed and dissolved in a solution containing 5% DMSO+10% polyethylene glycol-15 hydroxystearate+85% (20% 2-hydroxypropyl-β-cyclodextrin) to prepare a 1 mg/mL clear solution. Blood samples were collected at different time points after administration, and a concentration of C66 in the blood samples were detected by a liquid chromatograph mass spectrometer to obtain a drug concentration-time curve.
(§4) Plasma samples were analyzed using an AB Sciex 5500 (LC-MS/MS) with an electrospray ionization source (ESI), and monitored with a multiple reaction monitoring (MRM) scanning method in a positive ion mode. A gradient elution was performed with 0.1% formic acid aqueous solution-acetonitrile as a mobile phase. Unknown samples were subjected to protein precipitation using methanol before injection, with a flow rate of 0.3 mL/min. Chromatographic column: Kinetex® 1.7 μm, XB-C18 2.1*100 mm. Guard column: Phenomenex UHPLC C18 2.1 mm. A linear range of C66 was 1.000-288.0 ng/ml, with a lower limit of quantitation of 1.000 ng/mL.
(§5) The dogs were subjected to fasting but not water deprivation 12 hours before administration, and were provided with food 4 hours after administration, with free access to water.
(§6) For the oral administration groups, the blood collection time points were before administration and 15 min, 30 min, 45 min, 1 hour, 2 hours, 3 hours, 4 hours, 6 hours, 8 hours, 10 hours and 24 hours after administration, and 0.5-1.0 mL of blood were collected from a small saphenous vein outside a hind limb or a cephalic vein inside a forelimb, and placed into a heparin sodium anticoagulation tube. For the Intravenous injection group, the blood collection time points were before administration and 5 min, 15 min, 30 min, 45 min, 1 hour, 2 hours, 3 hours, 4 hours, 8 hours, 10 hours and 24 hours after administration, and 0.5-1.0 mL of blood were collected from a small saphenous vein outside a hind limb or a cephalic vein inside a forelimb, and placed into a heparin sodium anticoagulation tube. Main pharmacokinetic parameters such as AUC0-t, AUC0-∞, and t1/2 were calculated using a Phoenix WinNonlin 8.0 software.
(§7) Oral administration group 1: A required amount of C66 substance was weighed, and an appropriate amount of 1% CMC-Na was added to prepare a 0.6 mg/mL suspension.
(§8) Oral administration group 2: A required amount of C66 solid dispersion was weighed, and an appropriate amount of 1% CMC-Na was added to prepare a 0.6 mg/mL suspension.
(§9) Intravenous injection group: A required amount of C66 substance was weighed and dissolved in a solution containing 5% DMSO+10% polyethylene glycol-15 hydroxystearate+85% (20% 2-hydroxypropyl-β-cyclodextrin) to prepare a 1 mg/mL clear solution.

in vivo = details: male, Beagle, dog
Procedure: as §3, §4, §5, §6, §7, §8, §9

Structure (SMILES): O=C1/C(=C/c2ccccc2C(F)(F)F)CCC/C1=C\c1ccccc1C(F)(F)F [Example C66]
- Solubility of C66 ([1]; Ethanol (95%)): Slightly soluble
- Solubility of C66 ([1]; Hydrochloric acid solution with a pH of 1.0): Almost insoluble or insoluble
- Solubility of C66 ([1]; Phosphate buffer with a pH of 6.8): Almost insoluble or insoluble
- Solubility of C66 ([1]; Purified water): Almost insoluble or insoluble
- water solubility ([1]; previous studies): poor
- permeability [2]: good
- Saturated concentration of C66 ([3]; 1% SDS solution): 5.158 µg/mL
- Saturated concentration of C66 ([3]; 1% Tween 80 solution): 1.410 µg/mL
- Saturated concentration of C66 ([3]; 2% SDS solution): 9.046 µg/mL
- Saturated concentration of C66 ([3]; 2% Tween 80 solution): 3.385 µg/mL
- Saturated concentration of C66 ([3]; 3% SDS solution): 22.484 µg/mL
- Saturated concentration of C66 ([3]; 3% Tween 80 solution): 15.231 µg/mL
- solubility under different pH conditions [4]: not dissolved
- cumulative dissolution rate ([5]; 3% sodium dodecyl sulfate aqueous solution, particle size D0.9<15 μm): 25.3%
- maximum cumulative dissolution rate ([5]; different concentrations of CTAB aqueous solution): 18.9%
- cumulative dissolution rate ([5]; different concentrations of triton X-100 aqueous solution): 26.3%
- Isomer [6]: 0.038%
- Other largest unknown impurities [6]: 0.025%
- Process impurities 1 [6]: 0.188%
- Process impurities 2 [6]: 0.385%
- Content [7]: 98.5%
- Absolute bioavailability (AUC0-t) [8]: 7.16%
- ratio of AUC0-t to AUC0-∞ ([8]; iv, 1 mg/kg): 99%
- Relative bioavailability (AUC0-t) ([8]; po, 3 mg/kg): 15.02%
- ratio of AUC0-t to AUC0-∞ ([8]; po, 3 mg/kg): 88%
- AUC(0-t) (in vivo; iv, 1 mg/kg, AUC0-t): 162 ng·h/mL
- AUC(0-t) (in vivo; iv, 1 mg/kg, AUC0-t Mean): 148 ng·h/mL
- AUC(0-inf) (in vivo; iv, 1 mg/kg, AUC0-∞): 163 ng·h/mL
- AUC(0-inf) (in vivo; iv, 1 mg/kg, AUC0-∞ Mean): 149 ng·h/mL
- Cmax (in vivo; iv, 1 mg/kg, Cmax): 334 ng/mL
- Cmax (in vivo; iv, 1 mg/kg, Cmax Mean): 348 ng/mL
- MRT last (in vivo; iv, 1 mg/kg, MRTlast): 41 min
- MRT last (in vivo; iv, 1 mg/kg, MRTlast Mean): 35.9 min
- Tmax (in vivo; iv, 1 mg/kg, Tmax): 4.98 min
- Tmax (in vivo; iv, 1 mg/kg, Tmax Mean): 4.98 min
- half-life (in vivo; iv, 1 mg/kg, half-life (t1/2)): ~30 min
- half-life (in vivo; iv, 1 mg/kg, t1/2): 33.7 min
- half-life (in vivo; iv, 1 mg/kg, t1/2 Mean): 30.4 min
- AUC(0-t) (in vivo; po, 3 mg/kg, AUC0-t Mean): 31.8 ng·h/mL
- AUC(0-inf) (in vivo; po, 3 mg/kg, AUC0-∞ Mean): 35.8 ng·h/mL
- Cmax (in vivo; po, 3 mg/kg, Cmax Mean): 15.8 ng/mL
- MRT last (in vivo; po, 3 mg/kg, MRTlast): 113 min
- MRT last (in vivo; po, 3 mg/kg, MRTlast Mean): 103 min
- Tmax (in vivo; po, 3 mg/kg, Tmax): 120 min
- Tmax (in vivo; po, 3 mg/kg, Tmax Mean): 90 min
- half-life (in vivo; po, 3 mg/kg, half-life (t1/2)): ~60 min
- half-life (in vivo; po, 3 mg/kg, t1/2 Mean): 53.5 min
- Tmax (in vivo; po, 3 mg/kg, time to reach peak concentration (Tmax)): ~60 min
